The test system of the test is TAP. The test is described as follows: TAP competitive binding assay with radio-labeled reporter peptide R9L. The settings on record: result in words; TAP affinity = inverse of the IC50; reporter peptide R9L at 300 nM. The procedure:
TAP affinities were determined in a competitive binding assay. IC50 values for competitor test peptides were normalized with respect to the IC50 of reporter peptide […] (SEQ ID N° 2).
Determination of HLA-A2 and TAP affinities. […] Results are expressed as inverse normalized IC50 (1/IC50 of test peptide/ IC50 of cold reporter peptide).

With RRYNASTEL [R9L], the TAP affinity entry is listed as “high”.
